From PubChem BioAssay (NCI) come the findings set out here.

SMILES strings stand for the structures.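 These data come from cells grown in 96-well plates and exposed to compound for 48 hours at five concentrations. The concentration for full growth arrest is given as TGI.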 A value given as a limit tells only on which side of the number the result lay.

Test systems include SNB-75 CNS; LXFL 529 NSCLC; DLD-1 colon; SNB-78 CNS; DMS 114 small cell lung; DMS 273 small cell lung; KM20L2 colon; XF 498 CNS; M19-MEL melanoma; HOP-18 NSCLC.
What all share (assay): growth of human tumour cells (NCI), 48 h

On to `CC(=O)Oc1c2ccsc2c(OC(C)=O)c2ccsc12`, for which the TGI in the test on SNB-75 CNS came out at 0.753 µM.
Still for that read-out and setting: under `CN(C)c1ccc(/C=N/c2nc3cc4sc(/N=C/c5ccc(N(C)C)cc5)nc4cc3s2)cc1` stands over 100 µM.
In the case of `CC(=O)NNc1nc(C)c(C(=O)NNC(=O)C(=O)Nc2c([N+](=O)[O-])ccc(C)c2C)s1`, the TGI in the test on LXFL 529 NSCLC, in the test on DLD-1 colon, with SNB-78 CNS, in the test with DMS 114 small cell lung, in the test with DMS 273 small cell lung and with KM20L2 colon was over 100 µM throughout. Besides, the TGI with XF 498 CNS and with M19-MEL melanoma was over 100 µM each time.
In the case of `c1ccc(Cn2c(-c3ccc(-c4ccccc4)cc3)cc3ccccc32)cc1`, in the test with SNB-75 CNS, the TGI was over 100 µM.
`CSc1ccc(NC(=O)C2c3[nH]c4ccccc4c3C3CCC(C(C)(C)C)CC3C2C(=O)O)cc1` (centres undefined): the TGI in the test on HOP-18 NSCLC stood at 35.9 µM; in the test on LXFL 529 NSCLC it was 31.8 µM; in the test with DLD-1 colon, 54.6 µM; with SNB-78 CNS, 53.2 µM; in the test on DMS 114 small cell lung it was 63.4 µM; with DMS 273 small cell lung it was 30 µM. Further, the TGI was found to be 32.6 µM with KM20L2 colon, 37.9 µM in the test on SNB-75 CNS, 39.7 µM with XF 498 CNS and 57.3 µM in the test on M19-MEL melanoma.
In the test on SNB-75 CNS, `CN(C)CCCNC(=O)c1cc(NS(=O)(=O)c2ccc3c(c2)C(=O)c2ccccc2C3=O)cn1C` yielded a TGI of 56 µM.
Same read-out and setting: under `CCC1(CC)N=C(C(F)(F)F)c2cc(C(=O)C(F)(F)F)c3ccccc3c2N1` stands 23 µM; under `O=C(CC(C(=O)c1ccsc1)c1ccsc1)c1ccsc1` (centres undefined), over 100 µM.
In turn, `CCC/C(Cl)=N/OC(NC(=O)OCC)(C(F)(F)F)C(F)(F)F` registered a TGI in the test on SNB-75 CNS of over 100 µM.
The compound `COC(=O)c1ccc(C)cc1CC1Cc2cccc(C)c2C1=O` (centres undefined) registered a TGI in the test with SNB-75 CNS of 36.9 µM.
`CC(NC1=CC(=O)c2cccnc2C1=O)C(O)c1ccccc1` (centres undefined) came in with a TGI with SNB-75 CNS of 3.05 µM.
In the test with SNB-75 CNS, `CCc1c(CNC2=NCCN2)c(CC)c(CNC2=NCCN2)c(CC)c1CNC1=NCCN1` had a TGI of over 100 µM.
On the same count and under the same terms, under `CCOC(=O)CCC(NC(=O)c1ccc(Oc2nc3c(N)cc(C(F)(F)F)cc3nc2-c2ccccc2)cc1)C(=O)OCC` (centres undefined) stands 25.4 µM; under `COc1ccc(N=Nc2ccc3oc(=O)c(C(=O)Nc4ccccc4C)cc3c2)cc1`, over 10 µM.
The same measure, in the same setting: as for `Nc1nc(Cl)c2ncn(Cc3cccc(CCl)c3)c2n1`, the figure is 26.8 µM.
The compound `O=[N+]([O-])c1ccc2sc(/C=N/c3ccccn3)cc2c1` yielded a TGI in the test on SNB-75 CNS of over 100 µM.
In the test on SNB-75 CNS, `Nc1cccc(OCC2CCCN3CCCCC23)c1` (centres undefined) returned a TGI of 30.8 µM.
As for `COc1cc([C@@H]2c3cc4c(cc3[C@@H](OC(=O)c3cccc(N)c3)C3COC(=O)[C@@H]32)OCO4)cc(OC)c1O` (some centres undefined), the TGI was 51 µM with LXFL 529 NSCLC; over 100 µM in the test on DLD-1 colon; over 100 µM in the test with SNB-78 CNS; over 100 µM in the test on DMS 273 small cell lung; 26.8 µM in the test on KM20L2 colon; over 100 µM in the test with SNB-75 CNS. Besides, the results for the TGI in the test with XF 498 CNS and in the test with M19-MEL melanoma were 35 µM and over 100 µM, respectively.
`O=c1oc2ccccc2c(O)c1C(c1ccc(-c2ccccc2)cc1)c1c(O)c2ccccc2oc1=O` showed a TGI in the test on SNB-75 CNS of over 100 µM.
The same measure, in the same setting: as for `N#CC(C#N)=c1c2ccccc2c(=C(C#N)C#N)c2ccccc12`, the figure is 39.8 µM.
On the same count and under the same terms, as for `Nc1cc2ncnn2c(SCC(=O)N/N=C/C(Br)=C\c2ccccc2)n1`, the figure is over 100 µM; as for `Cc1nc2cc3ccccc3cc2[nH]c1=O`, 87 µM.
In turn, `CC(C)OC(=O)[C@H]1ON2O[C@H](O[C@@H]3CCCC[C@H]3c3ccccc3)C([Si](C)(C)c3ccccc3)[C@H]3OC(=O)[C@@H]1C32` (some centres undefined) showed a TGI in the test with SNB-75 CNS of over 100 µM.
The same measure, in the same setting: as for `COc1ccc(CNc2nc(NCc3ccc(OC)cc3)nc(NC3CCCC3)n2)cc1`, the figure is over 100 µM.
Same read-out and setting: under `O=C1OCC(c2ccc(Cl)cc2)=C1Cl` stands over 100 µM; under `COC(=O)CN1C(=O)C2(C(=O)OC)OC1(c1ccc([N+](=O)[O-])cc1)C1C(=O)N(c3ccccc3)C(=O)C12` (centres undefined), over 100 µM.
Consider `CC1(C)c2ccccc2N2O[C@@H]3C(=O)N(c4ccccc4)C(=O)[C@@H]3C21c1ccccc1` (some centres undefined), for which the TGI in the test with LXFL 529 NSCLC, in the test with DLD-1 colon, with SNB-78 CNS, with DMS 114 small cell lung, in the test on DMS 273 small cell lung and in the test on SNB-75 CNS was over 100 µM throughout. In addition, the TGI in the test on XF 498 CNS and with M19-MEL melanoma was over 100 µM in each case.
For the compound `Cc1c2ccncc2c(C)c2c1[nH]c1ccc(Oc3ccccc3)cc12`, the TGI turned out to be 30.4 µM in the test with HOP-18 NSCLC; 4.28 µM in the test with LXFL 529 NSCLC; 6.68 µM in the test on SNB-78 CNS; 3.35 µM with DMS 114 small cell lung; 3.07 µM in the test with DMS 273 small cell lung; 3.36 µM in the test with KM20L2 colon. Moreover, the TGI was 8.73 µM in the test on SNB-75 CNS and 3.61 µM in the test with XF 498 CNS.
In the test on SNB-75 CNS, `Cc1cn(Cc2cccc(C3=NCCCN3)c2)c(=O)n(Cc2cccc(C3=NCCCN3)c2)c1=O` yielded a TGI of over 100 µM.
Still for that read-out and setting: as for `Nc1ncc(C=O)c(NCC2(CO)CCC2)n1`, the figure is over 100 µM.
Same read-out and setting: as for `CS(=O)(=O)OCCCSCCSCCCOS(C)(=O)=O`, the figure is over 100 µM; as for `C=CCOCn1cc(F)c(=O)[nH]c1=O`, over 100 µM.
Turning to `COC(=O)c1c(-c2cc(OC)c(OC)c(OC)c2)oc2ccccc2c1=O`, the TGI in the test with HOP-18 NSCLC, in the test on LXFL 529 NSCLC, with DLD-1 colon, with SNB-78 CNS, in the test on DMS 273 small cell lung and with KM20L2 colon was over 100 µM in each case. Besides, the TGI in the test with SNB-75 CNS and in the test with M19-MEL melanoma was over 100 µM in each case.
Turning to `COc1ccc(OC)c(/C=C2\CCc3ccccc3C2=O)c1`, the TGI with HOP-18 NSCLC was 57.1 µM; with LXFL 529 NSCLC it was 31.8 µM; in the test with DLD-1 colon, 22.8 µM; in the test on DMS 114 small cell lung, 5.21 µM; with DMS 273 small cell lung it was 12.8 µM; in the test with KM20L2 colon it was 9.62 µM. In addition, the TGI in the test on SNB-75 CNS was 3.52 µM; with XF 498 CNS it was 11 µM; in the test on M19-MEL melanoma it was 23.5 µM.
In the test with SNB-75 CNS, `CN(C)C(=S)C(Cl)(c1ccccc1)c1ccccc1` displayed a TGI of over 100 µM.
Same read-out and setting: as for `c1ccc(-c2c(-c3cccs3)[nH]c(-c3cccs3)c2-c2ccccn2)nc1`, the figure is 42.9 µM.
Same read-out and setting: under `CN(/N=C/c1ccccn1)C1=NCCCN1` stands over 100 µM.
